Reference: ChEMBL document CHEMBL1124261 (J Med Chem, 1988)
pIC50, pKi: −log10 of the molar value.

How the values were obtained:
[1] = species: Mus musculus; experiment: (§1) Tested for inhibition against purified Folyl-polyglutamate synthase from mouse liver; details: concentration not given here
[2] = Inhibitory constant against purified Folyl-polyglutamate synthase from mouse liver; type: functional
[3] = tested on: L1210; experiment: Range for the survival of mice infected with L1210 leukemia after an intraperitoneal dose of 12.5 mg/kg for 9 days; type: functional, Mus musculus
[4] = tested on: L1210; experiment: Range for the survival of mice infected with L1210 leukemia after an intraperitoneal dose of 25 mg/kg for 9 days; type: functional, Mus musculus
[5] = tested on: L1210; experiment: Range for the survival of mice infected with L1210 leukemia after an intraperitoneal dose of 50 mg/kg for 9 days; type: functional, Mus musculus
[6] = tested on: L1210; experiment: Range for the survival of mice infected with L1210 leukemia after an intraperitoneal dose of 6.25 mg/kg for 9 days; type: functional, Mus musculus
[7] = tested on: L1210 ( R81); experiment: Tested for cell-growth inhibition against mouse leukemic L1210/R81 cells; type: functional, cell-based
[8] = tested on: L1210; experiment: Increase in life span of mice infected with L1210 leukemia after an intraperitoneal dose of 12.5 mg/kg for 9 days; type: functional; details: Mus musculus, L1210, ip, 216 h
[9] = tested on: L1210; experiment: Increase in life span of mice infected with L1210 leukemia after an intraperitoneal dose of 25 mg/kg for 9 days; type: functional; details: Mus musculus, L1210, ip, 216 h
[10] = tested on: L1210; experiment: Increase in life span of mice infected with L1210 leukemia after an intraperitoneal dose of 50 mg/kg for 9 days; type: functional; details: Mus musculus, L1210, ip, 216 h
[11] = tested on: L1210; experiment: Increase in life span of mice infected with L1210 leukemia after an intraperitoneal dose of 6.25 mg/kg for 9 days; type: functional; details: Mus musculus, L1210, ip, 216 h
[12] = tested on: L1210; experiment: Mean change in weight of mice infected with L1210 leukemia after 7 days after an intraperitoneal dose of 12.5 mg/kg; type: functional, Mus musculus
[13] = tested on: L1210; experiment: Mean change in weight of mice infected with L1210 leukemia after 7 days after an intraperitoneal dose of 25 mg/kg; type: functional, Mus musculus
[14] = tested on: L1210; experiment: Mean change in weight of mice infected with L1210 leukemia after 7 days after an intraperitoneal dose of 50 mg/kg; type: functional, Mus musculus
[15] = tested on: L1210; experiment: Mean change in weight of mice infected with L1210 leukemia after 7 days after an intraperitoneal dose of 6.25 mg/kg; type: functional, Mus musculus
[16] = tested on: L1210; experiment: Tested for cell-growth inhibition against mouse leukemic L1210 cells; type: functional, cell-based
[17] = tested on: L1210; experiment: Mean survival of mice infected with L1210 leukemia after an intraperitoneal dose of 50 mg/kg for 9 days; type: functional, Mus musculus
[18] = tested on: L1210; experiment: Mean survival of mice infected with L1210 leukemia after an intraperitoneal dose of 6.25 mg/kg for 9 days; type: functional, Mus musculus
[19] = tested on: L1210; experiment: Mean survival of mice infected with L1210 leukemia after an intraperitoneal dose of 12.5 mg/kg for 9 days; type: functional, Mus musculus
[20] = tested on: L1210; experiment: Mean survival of mice infected with L1210 leukemia after an intraperitoneal dose of 25 mg/kg for 9 days; type: functional, Mus musculus
[21] = molecular target: T1, Dihydrofolate reductase (Mus musculus, UniProt P00375); experiment: biochemical
T1 sequence (P00375 whole entry): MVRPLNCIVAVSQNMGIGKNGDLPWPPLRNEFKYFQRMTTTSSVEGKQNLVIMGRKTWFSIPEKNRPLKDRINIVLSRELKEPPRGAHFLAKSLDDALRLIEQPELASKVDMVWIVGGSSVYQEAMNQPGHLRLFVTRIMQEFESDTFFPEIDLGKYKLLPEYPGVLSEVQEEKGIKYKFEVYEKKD
Description: Tested for inhibition against purified Dihydrofolate reductase from L1210 murine leukemia cells

[22] = tested on: L1210; experiment: Increase in life span of mice infected with L1210 leukemia after an intraperitoneal dose of 4 mg/kg for 9 days; type: functional; details: Mus musculus, L1210, ip, 216 h
[23] = tested on: L1210; experiment: Mean change in weight of mice infected with L1210 leukemia after 7 days after an intraperitoneal dose of 4 mg/kg; type: functional, Mus musculus
[24] = tested on: L1210; experiment: Mean survival of mice infected with L1210 leukemia after an intraperitoneal dose of 4 mg/kg for 9 days; type: functional, Mus musculus
[25] = tested on: L1210; experiment: Range for the survival of mice infected with L1210 leukemia after an intraperitoneal dose of 4 mg/kg for 9 days; type: functional, Mus musculus
[26] = tested on: L1210; experiment: Range for the survival of mice infected with L1210 leukemia after an intraperitoneal dose of 12.5 mg/kg for 9 days; Range is 10-15; type: functional, Mus musculus
[27] = tested on: L1210; experiment: Range for the survival of mice infected with L1210 leukemia after an intraperitoneal dose of 6.25 mg/kg for 9 days; Range is 10-13; type: functional, Mus musculus
[28] = species: Mus musculus; experiment: as §1; type: functional; details: dose or concentration not given here
[29] = tested on: L1210; experiment: Range for the survival of mice infected with L1210 leukemia after an intraperitoneal dose of 50 mg/kg for 9 days; Range is 8-16

For `Nc1nc(N)c2nc(CNc3ccc(C(=O)NC(CCCCCCCCCCC(=O)O)C(=O)O)cc3)cnc2n1` (stereo unspecified), the inhibition [1] was 74%, the pKi [2] was 4.21 and the Range [3] was 16 days. It also gave a Range [4] of 16 days, a Range [5] of 15 days and a Range [6] of 13 days. It also gave a pIC50 [7] of 3.67, an ILS at 12.5 mg/kg [8] of 57% and an ILS at 25 mg/kg [9] of 11%. The ILS at 50 mg/kg [10] was 18%, the ILS at 6.25 mg/kg [11] was 45% and the Weight change [12] was 10%. For the same molecule, the Weight change [13] was -3%, the Weight change [14] was 4% and the Weight change [15] was 10%. It also gave a pIC50 [16] of 8.96, a Survival [17] of 10.4 days and a Survival [18] of 12.8 days. For the same molecule, the Survival [19] was 13.8 days, the Survival [20] was 9.6 days and the pIC50 [21] was 7.17.
With `CN(Cc1cnc2nc(N)nc(N)c2n1)c1ccc(C(=O)N[C@@H](CCC(=O)O)C(=O)O)cc1` [METHOTREXATE] the ILS at 4 mg/kg [22] was 95%, the Weight change [23] was 8% and the Survival [24] was 17.2 days. The Range [25] was 23 days.
Molecule `Nc1nc(N)c2nc(CNc3ccc(C(=O)NC(CCCCCCC(=O)O)C(=O)O)cc3)cnc2n1` (stereo unspecified) has a pKi [2] of 3.77, a Range [26] of 10 days and a Range [4] of 16 days. For the same molecule, the Range [27] was 10 days, the pIC50 [7] was less than 3.66 and the ILS at 12.5 mg/kg [8] was 61%. It also gave an ILS at 25 mg/kg [9] of 34%, an ILS at 50 mg/kg [10] of 20% and an ILS at 6.25 mg/kg [11] of 36%. It also gave a Weight change [12] of 9%, a Weight change [13] of 5% and a Weight change [14] of 7%. For the same molecule, the Weight change [15] was 9%, the pIC50 [16] was 7.70 and the Survival [17] was 10.6 days. The Survival [18] was 12 days, the Survival [19] was 14.2 days and the Survival [20] was 11.8 days. For the same molecule, the inhibition [28] was 50%, the pIC50 [21] was 7.27 and the Range [29] was 8 days.
